solubility, AUC(0-t) and Cmax data for three compounds are collected here from patent publication EP4782434A1, “N-SULFONYL CARBOXAMIDE COMPOUND, AND PREPARATION METHOD THEREFOR AND USE THEREOF” (Nutshell Therapeutics (Shanghai) Co., Ltd., priority 2023, dated 2025).

Converted amounts (≈) assume the structure as drawn.

A short description of data set [1]: Thermodynamic solubility determination in FaSSIF. The format is physicochemical. Particulars: thermodynamic from solid, FaSSIF pH 6.5, 37°C. The procedure:
• (1) The control compound, diclofenac sodium, was purchased from Sigma. • (2) FaSSIF, FeSSIF & FaSSGF (FFF02) powders were purchased from Biorelevant. • (3) 1.5 mL flat-bottom glass vials (purchased from local suppliers); PTFE/silicone septa (BioTech Solutions); PTFE-coated stir bars (V&P Scientific); MultiScreenHTS HV (0.45 µm) 96-well plates (Millipore, MSHVN4510 or MSHVN4550); Eppendorf Thermomixer Comfort; Vacuum Manifold ORVMN96 (Orochem).
0.420 g of NaOH, 3.438 g of NaH2PO4, and 6.186 g of NaCl were dissolved in approximately 900 mL of ultrapure water, and the pH of the solution was adjusted to 6.5 using 1N NaOH or 1N HCl. The solution was then diluted to 1000 mL with ultrapure water at room temperature.
2.240 g of FaSSIF, FeSSIF, and FaSSGF powder was added to approximately 500 mL of Buffer A. The mixture was stirred until the powder was completely dissolved. The solution was then diluted to 1000 mL with Buffer A at room temperature.
The solution was allowed to stand for 2 hours. The solution became slightly opalescent and was ready for use at that point. Note: it was to be used within 48 hours at room temperature or within 24 hours at 37°C.
(2) The test compounds and control compounds were weighed for solubility measurement (approximately 1.0 mg each in three separate 1.5 mL glass vials).
(3) For each compound, one vial served as a standard, and the other two vials were used for solubility measurement in duplicate.
(4) Each compound was placed sequentially into its appropriate 96-well plate. One plate served as the standard plate and the other as the sample plate.
(5) Based on the mass of the sample in each vial on the sample plate, an appropriate volume (approximately 1000 µL) of FaSSIF was added to each vial of the solubility sample plate using a pipette. […]
All calculations were performed using Microsoft Excel. Analysis and quantification of the sample filtrates were completed via LC-MS/MS by qualitative and quantitative comparison against the peaks of standards with known concentrations. […]

Data set [2] can be described thus: Pharmacokinetic study in rats. The class given is in vivo. The following applies: rat, plasma; male Wistar-Han rats, dose 30 mg/kg; route not stated in the table (oral gavage vehicle given). The procedure:
• 1. Experimental objective: To test the pharmacokinetics of the compounds in in vivo experiments using Wistar-Han rats. • 2. Experimental instruments and materials:
Animal: Wistar-Han rats (male)
Oral gavage: 1% methylcellulose aqueous solution.
Six male rats were used. On the evening prior to administration, the animals were fasted, with free access to water. During the experimental period, […] had free access to food and water. The animals were administered either by intravenous injection or intragastric gavage, after which the status of the animals was observed and any abnormal manifestations were recorded. Blood was collected via jugular vein puncture at 0.0833, 0.25, 1, 2, 4, 8, and 24 hours following intravenous administration; and at 0.25, 0.5, 1, 2, 4, 6, 8, and 24 hours following intragastric gavage. […]
A standard curve was established using the internal standard method, with the theoretical concentrations of the standard curve as the abscissa and the peak area ratio (peak area of test compound / peak area of internal standard) as the ordinate. […] Unknown samples were calculated via the standard curve. Pharmacokinetic parameters were calculated using the non-compartmental analysis (NCA) model of WinNonlin 8.2 software and presented in the report. […]

One may read the solubility as the concentration that dissolves in the medium under given conditions. A lower solubility goes with little dissolved substance. `COc1cnc(Cl)cc1-c1cc(C)ncc1C(=O)Nc1nnc(OC[C@H]2COCCO2)s1` [Ref. 1, reference compound]: the concentration in solution in data set [1] (24 hours) (solubility) was 31 µg/mL (≈ 64.9 µM).

Regarding `[2H]C([2H])([2H])O[C@@H](C)c1ccc(CS(=O)(=O)NC(=O)c2ccc(C([2H])([2H])[2H])cc2-c2cc(C(F)F)ncc2OC)cc1` [cpd-16, (S)-2-(2-(Difluoromethyl)-5-methoxypyridin-4-yl)-N-((4-(1-(methoxy-d3)ethyl)benzyl)sulfonyl)-4-(methyl-d3)benzamide], the solubility at 24 h in data set [1] was found to be 669 µg/mL (≈ 1310 µM).

In general, AUC(0-t) refers to exposure summed from dosing to a finite time, without extrapolation to infinity. A word on the Cmax: it is the maximum level reached in the sampled fluid or tissue. On to `[2H]C([2H])([2H])O[C@@H](C)c1ccc(CS(=O)(=O)NC(=O)c2ccc(C([2H])([2H])[2H])cc2-c2cc(Cl)ncc2OC)cc1` [cpd-17, (S)-2-(2-Chloro-5-methoxypyridin-4-yl)-N-((4-(1-(methoxy-d3)ethyl)benzyl)sulfonyl)-4-(methyl-d3)benzamide], for which, in data set [2], the area under the curve AUC(0-t) stood at 11700 ng·h/mL and the highest level (Cmax) was 8300 ng/mL. The compound also returned a solubility at 24 h in data set [1] of 511 µg/mL (≈ 1030 µM).
